Several values for one entry are separate records, joined by “and”; a condition that tells them apart may be missing. Equal values may be shown once. Entries after “also recorded” stand apart in the source; their conditions may differ. One block for each molecule: values may come before it.
Columns and labels:
[1] = system: non-malignant control PNT1a cells; assay: Staining of prostate cells with lipid dyes, PNT1a; format: cell-based, Human; conditions: PNT1a fixed in 4% paraformaldehyde, 30 minutes
Method: (§1) The fluorescent dyes, Filipin and BODIPY® 493/503, were incubated for 30 minutes with each of the four prostate cell lines (i.e. PNT1a, DU145, 22RV1 and LNCaP), fixed in 4% paraformaldehyde and imaged under confocal microscopy, which was supplemented with two-photon Mai-Tai® and Argon lasers. Prostate cell lines grown on coverslips were stained with ReZolve-L1™ and IraZolve [Ir(ppy)2(TzPyCN)] in serum-free media for 30 minutes at 37° C. and 5% CO2 and imaged in live mode, avoiding the process of fixation. From this experiment, different staining patterns between prostate cell lines and the fluorescent dyes were clearly seen (FIG. 12). For example, the level of diffuse cytosolic staining vs membrane staining with Filipin varied between cell lines (FIG. 12 a-d). […] Differences in the 22RV1 and LNCaP staining pattern in comparison to PNT1a and DU145 were apparent with BODIPY® 493/503 fluorescent dye. […] The fluorescence of ReZolve-L1™ was low in non-malignant control PNT1a cells, when compared to prostate cancer cells (FIG. 12i-l). […] These positive results prompted us to analyse staining of the prostate cells with the fluorescent dye IraZolve (FIG. 12m-p). […] In contrast, the intensity of staining in the malignant cell lines DU145, 22RV1 and LNCaP with ReZolve-L1™ was significant. […]

[2] = system: prostate cancer 22RV1 cells; assay: Staining of prostate cells with lipid dyes, 22RV1; format: cell-based, Human; conditions: 22RV1 fixed in 4% paraformaldehyde, 30 minutes
Method: as §1

[3] = system: prostate cancer DU145 cells; assay: Staining of prostate cells with lipid dyes, DU145; format: cell-based, Human; conditions: DU145 fixed in 4% paraformaldehyde, 30 minutes
Method: as §1

[4] = system: prostate cancer LNCaP cells; assay: Staining of prostate cells with lipid dyes, LNCaP; format: cell-based, Human; conditions: 30 minutes
Method: as §1

[5] = previously published complex; cited from earlier work
[6] = Photophysical measurements (absorption, emission, lifetime, quantum yield) in diluted solutions; format: physicochemical
Source text: A summary of the photophysical data for the complexes as diluted solutions (10^−5 M) in dichloromethane, water, PBS, lysosomal fluid solution, and ethyl laurate is reported in Table 1. All the listed aqueous media also contain 0.1% DMSO to favour the solubilisation of the complexes. The various solvents have been chosen to identify potential modulations on the photophysical behaviour of the iridium complexes in diverse cellular environments such as cytoplasm, endosome/lysosomes acidic organelles, or lipid-rich compartments like membranes, endoplasmic reticulum, and lipid droplets. In general, the photophysical characteristics were measured in aerated solutions to take into account the presence of oxygen in live cells. On the other hand, dichloromethane solutions were compared as aerated and degassed to confirm oxygen sensitivity and triplet character of the excited states of the complexes.
Absorption spectra were recorded at room temperature using a Cary 4000 UV/Vis spectrometer. Uncorrected steady state emission and excitation spectra were recorded on an Edinburgh FLSP980-S2S2-stm spectrometer equipped with: i) a temperature-monitored cuvette holder; ii) 450 W Xenon arc lamp; iii) double excitation and emission monochromators; iv) a Peltier cooled Hamamatsu R928P photomultiplier tube (spectral range 200-870 nm). Emission and excitation spectra were corrected for source intensity (lamp and grating) and emission spectral response (detector and grating) by a calibration curve supplied with the instrument. According to the approach described by Demas and Crosby, luminescence quantum yields (Φem) were measured in optically dilute solutions (O.D.<0.1 at excitation wavelength) obtained from absorption spectra on a wavelength scale [nm] and compared to the reference emitter by the following equation: […]
where A is the absorbance at the excitation wavelength (λ), I is the intensity of the excitation light at the excitation wavelength (λ), n is the refractive index of the solvent, D is the integrated intensity of the luminescence and Φ is the quantum yield. The subscripts r and x refer to the reference and the sample, respectively. The quantum yield determinations were performed at identical excitation wavelength for the sample and the reference, therefore cancelling the I(λr)/I(λx) term in the equation. The quantum yields of complexes were measured against Rubipy in water (Φr=0.028). Emission lifetimes (z) were determined with the time correlated single photon counting technique (TCSPC) with the same Edinburgh FLSP980-S2S2-stm spectrometer using either a pulsed picosecond LED (EPLED/EPL 377 nm, FHWM<800 ps) or a microsecond flashlamp. The goodness of fit was assessed by minimising the reduced χ^2 function and by visual inspection of the weighted residuals. The solvents used for the preparation of the solutions for the photophysical investigations were of LR grade and the water was deionised. Degassing of the dichlorometane solutions was performed using the freeze-pump-thaw method. Experimental uncertainties are estimated to be ±8% for lifetime determinations, ±20% for quantum yields, ±2 nm and ±5 nm for absorption and emission peaks, respectively.

[7] = Lipophilicity by shake-flask method (7.4-buffered PBS / n-octanol); format: physicochemical; conditions: 7.4-buffered PBS solution and n-octanol
Method: The lipophilicity of the iridium complexes was measured by the shake-flask method using 7.4-buffered PBS and n-octanol as solvents (Table 2). The values range between 1.49 and 2.68 are typical for cyclometalated iridium complexes that have not been bioconjugated. […] In general, neutral complexes have log D7.4 values above 2.00 and there is an increased in lipophilicity of extending the tetrazolato ligand with the addition of a phenyl spacer in [Ir(ppy)2(TzPyPhCN)], or by extending the conjugation on passing from pyridine to quinoline or isoquinoline for [Ir(ppy)2(TzQn)] and [Ir(ppy)2(TziQn)]. Methylation in all cases reduces lipophilicity to log D7.4 values […], with the same trend within the family of methylated complexes as previously observed for the neutral ones.

SMILES: CC1=CC(C)=[N+]2C1=C(C)c1c(C)cc(C)n1[B-]2(F)F [BODIPY® 493/503, reference compound]
- staining pattern [1]: localised staining to lipid droplets
- staining pattern [2]: diffused cytosolic staining and localised staining to lipid droplets
- staining pattern [3]: localised staining to lipid droplets

SMILES: CCCCC[C@@H](O)[C@H]1C(=O)O[C@H](C)[C@@H](O)/C=C/C=C/C=C/C=C/C=C(\C)[C@@H](O)C[C@H](O)C[C@H](O)C[C@H](O)C[C@H](O)C[C@H](O)C[C@@H]1O [Filipin, reference compound]
- staining pattern [1]: a number of small vesicles were brightly stained
- staining pattern ([4]; LNCaP fixed in 4% paraformaldehyde): a number of small vesicles were brightly stained
- staining pattern [2]: quite bright vesicular and plasma membrane staining
- staining pattern [3]: relatively low level

SMILES: c1cc[c]2c(c1)-c1cccc[n+]1[Ir]213([c]2ccccc2-c2cccc[n+]21)[n]1nnnc1-c1cccc[n+]13 [[Ir(ppy)2(TzPy)]]
- λem, structured emission [5]: 481 nm and 510 nm

- Emission λem ([6]; DCM, 298K, 10^−5 M): 618 nm
- τaer, excited state lifetime (relative weight in parentheses) ([6]; DCM, aerated, 298K): 131 ns
- Φaer, quantum yield ([6]; DCM, aerated, versus Ru(bpy)3^2+ in water (φr = 0.028)): 0.055
- τdeaer, excited state lifetime (relative weight in parentheses) ([6]; DCM, deaerated, 298K): 529 ns
- Φdeaer, quantum yield ([6]; DCM, deaerated, versus Ru(bpy)3^2+ in water (φr = 0.028)): 0.397
- knr ([6]; DCM, calculated as [(1 − φ)/τ] from deaerated solutions): 1.140 10^6s^−1
- kr ([6]; DCM, calculated as [φ/τ] from deaerated solutions): 7.505 10^5s^−1
- Emission λem ([6]; H2O with 0.1% DMSO, 298K, aerated): 618 nm
- Φ, quantum yield ([6]; H2O with 0.1% DMSO, aerated, versus Ru(bpy)3^2+ in water): 0.047
- logD7.4, distribution coefficient [7]: 2.09 ± 0.06
SMILES: N#Cc1ccc2[n+](c1)[Ir]13([c]4ccccc4-c4cccc[n+]41)([c]1ccccc1-c1cccc[n+]13)[n]1nnnc1-2 [[Ir(ppy)2(TzPyCN)]]
- Absorption λabs [nm] (10^4ε [M^−1cm^−1]) ([6]; DCM, 10^−5 M): 263 (6.57) nm (10^4ε [M^−1cm^−1]) and 339 (1.59) nm (10^4ε [M^−1cm^−1]) and 382 (1.09) nm (10^4ε [M^−1cm^−1]) and 420 (0.58) nm (10^4ε [M^−1cm^−1])
- staining pattern / intensity ([4]; live LNCaP, 20 μM, serum-free media, listed as IraZolve): stains the endoplasmic reticulum, where both phospholipids and triacylglycerides are synthesised, and it also co-localises with fatty acids in lipid droplets; also recorded: almost identical to that observed for ReZolve-L1™; also recorded: significantly greater
